Tests used:
[1] = High dose 7-day toxicology studies in rats; format: in vivo; details: for dose proportionality of exposure: high dose 7-day toxicology studies, oral; for NOAEL dose: allometric scaling from rats
[2] = system: mammalian enzymes, receptors and ion channels; assay: Safety pharmacology: affinity for a broad array of mammalian enzymes, receptors and ion channels; format: binding
[3] = system: T. cruzi (Brazil strain); assay: In vivo killing time assay: mouse footpads, Luciferase-expressing T. cruzi; design: species or system Trypanosoma cruzi; details: mice, single oral dose 25 mg/kg (FIG. 1C)
Procedure: Cure assays: Male or female C57BL/6 mice were intraperitoneally infected with 10^4 trypomastigotes of the Brazil strain. Mouse infection was confirmed at 25-30 dpi by detection of CD8^+ T cells specific against the T. cruzi TSKb20 peptide in blood (Martin, et al., PLoS pathogens 2, e77 (2006)). Compounds resuspended in 1% carboxymethyl cellulose and 0.1% Tween 80, were administered daily by gavage at the specified concentrations. In order to optimally detect persistent infection, immune responses in the mice were suppressed by intraperitoneal injection of four doses of cyclophosphamide every 2-3 days (200 mg/kg/day), beginning one week after the end of therapeutic treatment. At the end of the immunosuppression regimen, peripheral blood was checked under light microscope for parasites and cultured in LDNT media (Bustamante, et al., The Journal of infectious diseases 209, 150-162 (2014)). […] In vivo killing time assays: C57BL/6 mice were infected with 2.5×10^5 Luciferase-expressing T. cruzi (Brazil strain) in the foot pads, and two days later one oral dose of AN14353 (25 mg/kg) was administered. The bioluminescent signal in the feet after i.p. injection of D-luciferin (PerkinElmer; 250 mg/kg) was measured in a Lumina II IVIS imager (PerkinElmer). […]

[4] = system: T. cruzi (Brazil strain); assay: Mouse cure assays (daily oral treatment, cyclophosphamide immunosuppression, hemoculture, skeletal muscle qPCR); format: in vivo, Trypanosoma cruzi
Procedure: Cure assays: Male or female C57BL/6 mice were intraperitoneally infected with 10^4 trypomastigotes of the Brazil strain. Mouse infection was confirmed at 25-30 dpi by detection of CD8^+ T cells specific against the T. cruzi TSKb20 peptide in blood (Martin, et al., PLoS pathogens 2, e77 (2006)). Compounds resuspended in 1% carboxymethyl cellulose and 0.1% Tween 80, were administered daily by gavage at the specified concentrations. In order to optimally detect persistent infection, immune responses in the mice were suppressed by intraperitoneal injection of four doses of cyclophosphamide every 2-3 days (200 mg/kg/day), beginning one week after the end of therapeutic treatment. At the end of the immunosuppression regimen, peripheral blood was checked under light microscope for parasites and cultured in LDNT media (Bustamante, et al., The Journal of infectious diseases 209, 150-162 (2014)). […] In vivo killing time assays: C57BL/6 mice were infected with 2.5×10^5 Luciferase-expressing T. cruzi (Brazil strain) in the foot pads, and two days later one oral dose of AN14353 (25 mg/kg) was administered. The bioluminescent signal in the feet after i.p. injection of D-luciferin (PerkinElmer; 250 mg/kg) was measured in a Lumina II IVIS imager (PerkinElmer). Low dose short treatment: Hairless mice (SKH-1) were infected intraperitoneally with 5×10^4 Luciferase expressing T. cruzi (Colombiana strain) and orally treated from 12 to 22 dpi with 1, 2.5 or 5 mg/kg of AN16109 or AN15368. Bioluminiscence signal of the whole body was measure after D-luciferin injection in a Lumina II IVIS in vivo imager equipped with the Living Imaging 4.0 software (PerkinElmer).

[5] = system: cytochrome P450 enzymes; assay: Inhibition of representative cytochrome P450 enzymes; format: in vitro ADME; details: 10 uM
[6] = Standard Ames study; format: cell-based
[7] = Pharmacokinetics in mice (intravenous and oral); format: in vivo; details: in words
[8] = system: T. cruzi serine carboxypeptidase (CBP); assay: Sensitivity of serine carboxypeptidase (CBP) knockout T. cruzi amastigotes; format: cell-based, Trypanosoma cruzi
Procedure: The in vitro anti-T. cruzi amastiogote activity assay was performed and optimized based on the protocol described previously (Canavaci, et al., PLoS neglected tropical diseases 4, e740 (2010)). The change in tdTomato fluorescence intensity was determined as a measurement of growth over 72 hours of culture. For assaying drug effects on extracellular amastigotes, trypomastigotes were collected from infected Vero cell cultures and converted in acidic media as previously described (Tomlinson, et al., Parasitology 110 (Pt 5), 547-554 (1995)). Amastigotes (50,000/well) were incubated with 2-fold serial dilutions of compounds for 48 hours. The ATP production was used as an indication of growth in this case, and was measured by ATPlite Luminescence ATP Detection Assay System (PerkinElmer). Both fluorescence and luminescence were read using a BioTek Synergy Hybrid Multi-Mode reader equipped with the software Gene5 v 2.0 (BioTek). […]
The CBPs knockout was produced using ribonucleoprotein (RNP) complexes as previously described (Soares Medeiros, et al., mBio 8 (2017)). Briefly, Brazil tdTomato strain epimastigotes were electroporated with RNP complexes containing SaCas9 and an sgRNA targeting CBP gene TcBrA4_0048170, plus a repair template containing stop codons in all three reading frames and the M13 sequence for use as a PCR anchor. […]

[9] = system: anti-T. cruzi antibodies; assay: Luminex-based multiplex serological analysis in macaques; format: in vivo, rhesus macaque (Macaca mulatta); details: treated macaques, over 42 months after end of treatment
Text: For a number of smaller proteins, fusions of up to 2 individual genes are employed for some target proteins in order to expand the array of antibodies being detected while controlling costs and complexity of the assay. (TritrypDb.org identifiers: Tc1=fusion of TcBrA4_0116860 and TcYC6_0028190; Tc2=fusion of TcBrA4_0088420 and TcBrA4_0101960; Tc3=fusion of TcBrA4_0104680 and TcBrA4_0101980; Tc4=fusion of TcBrA4_0028480 and TcBrA4_0088260; Tc5=fusion of TcYC6_0100010 and TcBrA4_0074300; Tc7=fusion of TcYC6_0083710 and TcBrA4_0130080; Tc8=TcYC6_0037170; Tc11=TcYC6_0124160; Tc17=fusion of TcBrA4_0028230 and TcBrA4_0029760; Kn107=TcCLB.508355.250; G10=TcCLB.504199.20). Macaque antibody binding to individual beads in the Multiplex assays was detected with donkey anti-human IgG (H+L) conjugated to phycoerythrin (Jackson ImmunoResearch) in a 1:200 dilution.

| Compound | dose proportionality of exposure [1] | affinity for a broad array of mammalian enzymes, receptors and ion channels [2] | in vivo trypanocidal activity (bioluminescence of feet over 72 hrs) [3] | resolution of infections in immunodeficient mice ([4]; IFN-gamma deficient mice, 25 mg/kg, 40 days (FIG. 1E)) | resolution of established T. cruzi infections ([4]; wild-type mice, 25 mg/kg, 40 day treatment (FIG. 1D)) | inhibition of representative cytochrome P450 enzymes [5] | genotoxicity, Ames [6] | absorption (dose proportionality of exposure in vivo) [7] | decrease of in vitro sensitivity of T. cruzi amastigotes after disruption of serine carboxypeptidases ([8]; CBP KO vs wild type (FIG. 2C)) | NOAEL dose ([1]; humans) [mg/kg] | NOAEL dose ([1]; monkeys) [mg/kg] | NOAEL ([1]; rats) [mg/kg] | drug accumulation between the first and seventh days ([1]; rats) | total plasma exposure (AUC0-24 h) ([1]; rats, 120 mg/kg/day) | effects on hematology and clinical chemistry ([1]; rats, 120 mg/kg/day or lower) | effects on hematology and clinical chemistry ([1]; rats, 150 mg/kg) | cure of T. cruzi infection in mice ([4]; in words (FIGS. 3A-3E)) | minimal efficacious dose ([4]; mice (FIG. 3E)) [mg/kg] | antibody levels to recombinant T. cruzi proteins [9] | increased resistance after disruption of CBPs ([8]; intracellular amastigotes, TcCBP KO vs WT (FIG. 5E)) [×] |
| --- | --- | --- | --- | --- | --- | --- | --- | --- | --- | --- | --- | --- | --- | --- | --- | --- | --- | --- | --- | --- |
| Cc1c(C(=O)N[C@H](C(=O)OCc2ccc(F)c(F)c2)C(C)C)ccc2c1B(O)OC2 [AN14353] | non-dose proportional exposure | little to no affinity | rapid in vivo trypanocidal activity | consistently resolve | consistently resolve established T. cruzi infections | did not demonstrate significant inhibition | non-genotoxic | solubility-limited absorption | up to 100 fold |  |  |  |  |  |  |  |  |  |  |  |
| Cc1c(C(=O)N[C@H](C(=O)OCC2CCOCC2)C(C)C)ccc2c1B(O)OC2 [AN15368] | good dose proportional exposure | little to no affinity |  |  |  | did not demonstrate significant inhibition | non-genotoxic |  |  | 19.4 | 60.5 | 120 | no evidence of drug accumulation | approximately 30,000 ng*hr/mL | none | modest effects | cures T. cruzi infection in mice | 2.5 | declines in antibody levels | 1000 |

Reference: US20240133884A1, “COMPOSITIONS AND METHODS FOR DETECTING TRYPANOSOMA CRUZI INFECTION” (University of Georgia Research Foundation, Inc., priority 2022, published 2024)
